# Results published in patent publication US20140296153A1, “Oligodendrocyte Differentiation” (priority 2011, published 2014).
# How the values were obtained:
# Olig2 = test: Immunocytochemistry for Olig2; type: cell-based, mouse; conditions: Hp treatment
# Protocol: Cells were fixed for 30 minutes in 4% paraformaldehyde in phosphate-buffered saline (PBS), permeabilized and blocked for non-specific binding sites for 1 h with 0.25% Triton X-100 (Sigma) and 3% bovine serum albumin (BSA, Sigma) dissolved in PBS. Cells were then subsequently incubated overnight at 4° C. with the following antibodies: rabbit polyclonal anti-CB1R (1:200, Proteimax), mouse monoclonal anti-nestin (1:200, Chemicon, Temecula, Calif., USA), mouse monoclonal anti-GFAP (1:500, Cell Signaling Technology, Danvers, Mass., USA) and rabbit polyclonal anti-Olig2 (1:200, Millipore, Billerica, Mass., USA). Thereafter, the cover slips were rinsed in PBS and incubated for 1 h at RT with the appropriate secondary antibodies: anti-rabbit IgG labeled with Alexa Fluor 488 (1:200) or anti-mouse IgG labeled with Alexa Fluor 594 (1:200) (both from Molecular Probes). After rinsing with PBS, cell preparations were incubated 5 min at RT with Hoechst 33342 (2 μg/mL, Molecular Probes) in PBS, for nuclear staining. Finally, the preparations were mounted using Dakocytomation fluorescent medium (Dakocytomation, Carpinteria, Calif., USA). Fluorescence images were recorded using a digital camera coupled to an Axioskop microscope (Carl Zeiss).
# SVZ cells = test: SVZ neurosphere forming assay (primary neurospheres); type: cell-based, mouse
# Protocol: Neurosphere forming and self-renewal assays were performed on SVZ cells seeded at clonal density, 2500 cells per well in 24-well cell culture plates in SFM containing 5 ng/ml EGF and 2.5 ng/ml FGF-2 and supplemented or not (control) with 1 μM Hp or 50 ng.ml^−1 hepatocyte growth factor (carrier free recombinant human HGF, R&D Systems, Lille, France). After 6 days, the numbers of primary neurospheres were determined. For self-renewal assay, neurospheres were collected, dissociated as single cells and seeded in SFM containing 5 ng/ml EGF and 2.5 ng/ml FGF-2 in 24 well plates. After 6 days, the number of secondary neurospheres was counted.
# Fluorescence images were recorded using an LSM 510 Meta confocal microscope or an Axioskop 2 Plus fluorescence microscope (both from Carl Zeiss). In all experiments, measurements were performed in the border of SVZ neurospheres where migrating cells form a cell monolayer. For the SVZ neurosphere forming and self-renewal assays the experiments were replicated in five independent culture preparations and each experimental condition was assayed in four different coverslips. For the remaining experiments, each condition was assayed in three different coverslips, and except where otherwise specified, the experiments were replicated in three independent culture preparations. Percentages of TUNEL or BrdU immunoreactive cells in SVZ cell cultures were calculated from cell counts in five independent microscopic fields in each coverslip with a x40 objective (approximately 200 cells per field). Software used was Axiovision, release 4.6 (Carl Zeiss). For SCCl experiments, the percentage of oligodendrocytic-like responding cells (with a Thromb/Hist ratio above 1.3) was calculated on the basis of one microscopic field per coverslip, containing approximately 100 cells (magnification, ×40).
# Neural stem-like cells are characterized in vitro by both their capacity to give rise to neurospheres and to self-renew when cultured in the presence of mitogens.
structure (smiles),measurement,setting,value
"CC(C)C[C@H](NC(=O)[C@H](Cc1ccccc1)NC(=O)[C@H](CCCCN)NC(=O)[C@H](Cc1ccccc1)NC(=O)[C@H](CC(N)=O)NC(=O)[C@@H](NC(=O)[C@@H]1CCCN1)C(C)C)C(=O)N[C@@H](CO)C(=O)N[C@@H](Cc1cnc[nH]1)C(=O)O [Hp, PVNFKFLSH]",number of Olig2-positive cells,Olig2,increased
same,decrease of the number of primary neurospheres,SVZ cells; 1 μm Hp during 6 days,15%
same,number of primary neurospheres (control 100%),"SVZ cells; Hp 1 μM, 6 days, SFM with 5 ng/ml EGF and 2.5 ng/ml FGF-2",85.13±3.86%
